Test results from ChEMBL document CHEMBL5729348, “Heterocyclic compounds for the inhibition of PASK” (2022).

Target: PAS domain-containing serine/threonine-protein kinase (Homo sapiens, UniProt Q96RG2)
Test: PAS Kinase FRET Assay: The aim of the FRET assay is to determine the inhibition potential of test compounds on targeted kinase. This assay platform provides a homogenous screening method for measuring kinase activity by quantitating the amount of phospho-substrate in solution following a kinase reaction.In the presence of kinase and ATP, the Ulight-peptide is phosphorylated and captured by an anti-phospho-substrate antibody, which brings the Eu chelate donor and Ulight acceptor dyes into close proximity. Upon excitation at 340 nm, the Eu chelate transfers its energy to the Ulight dye, resulting in a fluorescent light emission at 665 nm.Titration of kinase at 1 mM ATP was achieved via the following protocol. After making serial three-fold dilutions of PASK (Invitrogen) in reaction buffer across the plate; 5 μl of kinase dilution and 5 μl substrate/ATP mix were added to the wells of the white Optiplate-384 (PerkinElmer). The contents of the plate were and incubated at RT for 1 h. The reaction was stopped by adding 5 μl of stop solution to each test well followed by mixing and incubation at RT for 10 minutes. 5 μl of detection mix (detection antibody diluted in detection buffer) was added; the contents of the plate were mixed and then incubated in the dark for 1 hour at RT. The signal was recorded at TR-FRET mode (665 nm/615 nm). The results were graphed to calculate the EC50. […]

Chain of PAS domain-containing serine/threonine-protein kinase (Q96RG2 whole entry, the tested form may be a part): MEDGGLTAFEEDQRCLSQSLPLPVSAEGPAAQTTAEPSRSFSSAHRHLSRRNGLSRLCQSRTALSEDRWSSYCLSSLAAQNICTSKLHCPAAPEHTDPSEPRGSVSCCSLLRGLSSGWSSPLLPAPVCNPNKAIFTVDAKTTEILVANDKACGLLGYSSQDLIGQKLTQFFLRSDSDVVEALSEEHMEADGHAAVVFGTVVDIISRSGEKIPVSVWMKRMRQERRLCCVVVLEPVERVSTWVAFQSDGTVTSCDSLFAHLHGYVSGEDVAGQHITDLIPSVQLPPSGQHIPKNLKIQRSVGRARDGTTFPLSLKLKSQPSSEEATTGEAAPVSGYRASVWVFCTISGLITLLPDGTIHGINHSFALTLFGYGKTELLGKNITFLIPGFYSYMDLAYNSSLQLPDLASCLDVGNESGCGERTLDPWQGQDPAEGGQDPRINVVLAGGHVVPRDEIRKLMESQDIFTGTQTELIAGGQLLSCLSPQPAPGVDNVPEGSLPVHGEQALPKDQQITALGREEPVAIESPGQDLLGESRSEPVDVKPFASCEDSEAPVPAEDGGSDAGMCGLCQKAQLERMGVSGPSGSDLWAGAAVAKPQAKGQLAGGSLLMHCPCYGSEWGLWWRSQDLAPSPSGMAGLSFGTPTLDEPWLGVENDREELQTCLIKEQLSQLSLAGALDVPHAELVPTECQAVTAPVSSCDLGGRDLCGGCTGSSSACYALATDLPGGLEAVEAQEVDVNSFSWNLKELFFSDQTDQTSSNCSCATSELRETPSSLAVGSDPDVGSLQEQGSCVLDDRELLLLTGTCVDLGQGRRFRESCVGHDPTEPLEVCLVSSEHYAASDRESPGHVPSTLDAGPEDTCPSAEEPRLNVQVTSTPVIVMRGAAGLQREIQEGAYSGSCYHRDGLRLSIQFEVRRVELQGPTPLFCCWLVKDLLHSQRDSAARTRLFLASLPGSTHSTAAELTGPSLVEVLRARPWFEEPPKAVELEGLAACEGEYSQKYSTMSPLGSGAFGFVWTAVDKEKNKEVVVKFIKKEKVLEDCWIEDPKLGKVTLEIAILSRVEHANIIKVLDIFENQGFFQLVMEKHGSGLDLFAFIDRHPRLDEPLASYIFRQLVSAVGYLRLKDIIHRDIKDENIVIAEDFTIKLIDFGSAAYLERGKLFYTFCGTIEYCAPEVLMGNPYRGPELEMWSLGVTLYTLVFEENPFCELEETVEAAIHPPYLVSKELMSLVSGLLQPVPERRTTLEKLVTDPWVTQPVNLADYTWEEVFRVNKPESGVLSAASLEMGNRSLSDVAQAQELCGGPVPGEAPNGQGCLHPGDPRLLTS

SMILES: CN(c1nc2cc(C(=O)O)ccc2nc1-c1ccc(F)cc1)C1CCNCC1
- IC50: < 10 µM
